Assay results from BindingDB's records for doi:10.1021/acs.jmedchem.5b01538 (Glaxosmithkline, 2016).

Target: T1, Lysine-specific demethylase 4C (Homo sapiens, UniProt Q9H3R0)
T1 sequence (Q9H3R0 whole entry): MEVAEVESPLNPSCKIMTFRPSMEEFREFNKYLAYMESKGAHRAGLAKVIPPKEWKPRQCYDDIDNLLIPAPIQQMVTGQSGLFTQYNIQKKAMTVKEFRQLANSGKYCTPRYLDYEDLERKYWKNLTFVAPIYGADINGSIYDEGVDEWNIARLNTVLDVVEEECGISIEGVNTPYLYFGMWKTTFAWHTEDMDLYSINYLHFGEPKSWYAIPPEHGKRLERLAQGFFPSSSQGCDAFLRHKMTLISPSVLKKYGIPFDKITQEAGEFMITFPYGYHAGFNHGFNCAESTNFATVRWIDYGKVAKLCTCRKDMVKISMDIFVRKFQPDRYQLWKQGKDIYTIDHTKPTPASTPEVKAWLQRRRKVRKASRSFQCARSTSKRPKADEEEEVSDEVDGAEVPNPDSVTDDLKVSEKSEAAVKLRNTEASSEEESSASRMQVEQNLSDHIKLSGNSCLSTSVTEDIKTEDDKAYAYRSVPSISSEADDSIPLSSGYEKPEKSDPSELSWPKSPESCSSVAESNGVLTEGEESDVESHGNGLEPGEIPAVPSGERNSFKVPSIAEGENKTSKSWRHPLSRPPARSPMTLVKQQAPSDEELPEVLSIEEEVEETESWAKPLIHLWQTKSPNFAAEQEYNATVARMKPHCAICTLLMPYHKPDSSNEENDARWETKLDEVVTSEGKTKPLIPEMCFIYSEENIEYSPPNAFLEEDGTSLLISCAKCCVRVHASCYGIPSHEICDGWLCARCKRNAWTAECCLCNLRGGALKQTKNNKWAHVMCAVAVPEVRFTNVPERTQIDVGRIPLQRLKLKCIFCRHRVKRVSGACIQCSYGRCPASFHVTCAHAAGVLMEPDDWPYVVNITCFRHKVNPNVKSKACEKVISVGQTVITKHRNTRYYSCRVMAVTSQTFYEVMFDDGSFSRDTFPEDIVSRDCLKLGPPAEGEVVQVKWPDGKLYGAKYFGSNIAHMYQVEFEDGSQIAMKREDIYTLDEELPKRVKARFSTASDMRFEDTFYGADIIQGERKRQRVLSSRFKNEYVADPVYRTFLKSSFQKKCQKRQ
Experiment: Inhibition of N-terminal his-tagged full-length human KDM4C transfected in U2OS cells assessed as inhibition of H3K9Me3 demethylation for 24 hrs

Compound	IC50 [µM]
O=c1[nH]c(Oc2ccc(Cl)c(O)c2)nc2cnccc12	3.98
CC(C)c1ccc(Oc2nc3cnccc3c(=O)[nH]2)cn1	3.98
